What is called IC50 is the concentration needed to halve the response being measured. What is called melting point is the temperature of the solid-liquid transition.

In one data set the test system is HepG-2. The experiment in a line: In vitro cytotoxicity, MTT assay, HepG-2. To be noted: 72 h, average of two separate determinations. It is filed as cell-based.
The target of another data set is PI3Kα (Homo sapiens, UniProt P42336). The experiment in a line: PI3Kα kinase assay (Kinase-Glo Luminescent Kinase Assay). As to conditions: 1 µM ATP, 60 min, average of two determinations. It is filed as biochemical. (In general: In Kinase-Glo more light means more ATP remaining.)
PI3Kα, sequence (P42336 whole entry): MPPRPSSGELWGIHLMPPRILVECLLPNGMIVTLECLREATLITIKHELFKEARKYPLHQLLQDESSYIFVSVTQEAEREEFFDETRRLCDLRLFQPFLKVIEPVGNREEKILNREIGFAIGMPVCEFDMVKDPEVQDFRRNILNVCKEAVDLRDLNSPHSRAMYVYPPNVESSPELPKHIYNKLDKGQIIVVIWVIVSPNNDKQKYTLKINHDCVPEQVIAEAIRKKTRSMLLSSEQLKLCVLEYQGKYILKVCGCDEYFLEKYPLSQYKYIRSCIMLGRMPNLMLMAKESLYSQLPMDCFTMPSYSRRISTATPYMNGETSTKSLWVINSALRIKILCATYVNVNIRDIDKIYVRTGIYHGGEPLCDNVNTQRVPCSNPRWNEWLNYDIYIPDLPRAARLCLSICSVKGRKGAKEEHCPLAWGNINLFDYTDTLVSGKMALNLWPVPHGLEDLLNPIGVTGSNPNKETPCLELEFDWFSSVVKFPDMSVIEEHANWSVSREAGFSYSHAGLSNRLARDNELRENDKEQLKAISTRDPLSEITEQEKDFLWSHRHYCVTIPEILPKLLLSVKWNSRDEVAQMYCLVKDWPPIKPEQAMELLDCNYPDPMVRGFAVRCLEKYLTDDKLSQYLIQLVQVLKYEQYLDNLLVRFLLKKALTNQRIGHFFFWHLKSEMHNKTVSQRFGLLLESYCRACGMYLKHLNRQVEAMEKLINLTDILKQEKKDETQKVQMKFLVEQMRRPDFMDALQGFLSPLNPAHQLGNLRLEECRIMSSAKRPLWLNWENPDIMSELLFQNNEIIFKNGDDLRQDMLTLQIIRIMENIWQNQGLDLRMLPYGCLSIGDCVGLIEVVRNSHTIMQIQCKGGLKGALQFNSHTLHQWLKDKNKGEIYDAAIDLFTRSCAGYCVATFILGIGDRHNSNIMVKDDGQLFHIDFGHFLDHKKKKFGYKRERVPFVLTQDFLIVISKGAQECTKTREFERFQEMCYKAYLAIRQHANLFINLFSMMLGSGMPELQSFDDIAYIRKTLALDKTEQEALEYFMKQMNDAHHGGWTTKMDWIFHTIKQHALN
PI3Kα, sequence (P27986 whole entry partner): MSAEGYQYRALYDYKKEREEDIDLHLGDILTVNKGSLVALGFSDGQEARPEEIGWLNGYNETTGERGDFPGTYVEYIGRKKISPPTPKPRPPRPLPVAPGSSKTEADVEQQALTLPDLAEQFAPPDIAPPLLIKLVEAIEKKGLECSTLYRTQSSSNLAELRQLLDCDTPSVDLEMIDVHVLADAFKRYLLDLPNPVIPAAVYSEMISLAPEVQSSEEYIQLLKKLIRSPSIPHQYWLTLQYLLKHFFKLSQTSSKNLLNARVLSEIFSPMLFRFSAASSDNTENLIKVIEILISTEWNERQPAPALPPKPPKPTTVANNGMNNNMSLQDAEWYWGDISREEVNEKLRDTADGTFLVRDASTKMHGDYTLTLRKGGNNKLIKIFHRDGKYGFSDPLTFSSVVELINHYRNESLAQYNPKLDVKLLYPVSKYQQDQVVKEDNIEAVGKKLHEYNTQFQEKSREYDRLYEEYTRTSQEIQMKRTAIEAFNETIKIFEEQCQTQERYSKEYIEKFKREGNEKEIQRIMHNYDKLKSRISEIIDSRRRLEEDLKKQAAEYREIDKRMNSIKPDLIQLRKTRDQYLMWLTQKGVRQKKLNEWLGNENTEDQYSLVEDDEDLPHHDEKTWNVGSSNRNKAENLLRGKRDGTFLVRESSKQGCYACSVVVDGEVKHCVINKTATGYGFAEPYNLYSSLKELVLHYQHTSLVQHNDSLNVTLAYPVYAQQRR
In another data set the test system is A549. As to the kind of experiment: In vitro cytotoxicity, MTT assay, A549. It is filed as cell-based. As to conditions: A549 cells, 72 h, average of two separate determinations.
A further data set deals with MCF-7. As to the kind of experiment: In vitro cytotoxicity, MTT assay, MCF-7. It is filed as cell-based. To be noted: MCF-7 cells.
A further data set deals with mTOR (Homo sapiens, UniProt P42345). As to the kind of experiment: mTOR kinase assay (Kinase-Glo Luminescent Kinase Assay). The data set is classed as biochemical. As to conditions: 10 µM ATP, 60 min, average of two determinations.
For another data set, the system named is PC-3. As to the kind of experiment: In vitro cytotoxicity, MTT assay, PC-3. The data set is classed as cell-based. As to conditions: PC-3 cells, 72 h, average of two separate determinations.
Setting [1] is: Homo sapiens, HepG2, HepG-2 cells.
[2] abbreviates: Homo sapiens, MCF7, MTT, 72 h, average of two separate determinations, read-out: IC50 (µM) MCF-7.

Read-outs that look alike come from different tables or passages of the source. Where only a bound is given, the exact number is not on record here.

Turning to `CC(C)(C#N)c1ccc(Nc2c(NC(=O)NS(=O)(=O)c3ccc(F)cc3)cnc3ccc(Br)cc23)cc1` [19a, N-((6-Bromo-4-((4-(2-cyanopropan-2-yl)phenyl)amino)quinolin-3-yl)carbamoyl)-4-fluorobenzenesulfonamide carboxamide], the IC50 worked out at 33.3 ± 1.52 µM in the data set on HepG-2 (HepG-2 cells); 0.72 µM at PI3Kα; 38.5 ± 1.04 µM with A549; 3.88 ± 0.58 µM with MCF-7 (MTT, 72 h, average of two separate determinations, read-out: IC50 (µM) MCF-7); 2.88 ± 0.58 µM in the data set on MCF-7 (read-out: IC50 value against MCF-7 cell (conclusions text, unit inferred)); 2.62 µM at mTOR. This compound also came in with an IC50 in the data set with PC-3 of 66.6 ± 1.28 µM.
`CC(C)(C#N)c1ccc(Nc2c(NC(=O)NS(=O)(=O)c3ccc(Cl)cc3)cnc3ccc(Br)cc23)cc1` [19b, N-((6-Bromo-4-((4-(2-cyanopropan-2-yl)phenyl)amino)quinolin-3-yl)carbamoyl)-4-chlorobenzenesulfonamide] displayed a melting point of 279.2 to 280.1 °C. Besides, in the data set with HepG-2 (setting [1]), the half-inhibitory concentration (IC50) worked out at 30.2 ± 1.45 µM. This compound came in with a concentration for half-maximal inhibition (IC50) with A549 (Homo sapiens) greater than 100 µM. For the same compound, the concentration for half-maximal inhibition (IC50) in the data set with MCF-7 (setting [2]) turned out to be 15.1 ± 1.1 µM. In the data set on PC-3 (Homo sapiens), this compound came in with an IC50 of 34.3 ± 1.32 µM.
`Cc1ccc(S(=O)(=O)NC(=O)Nc2cnc3ccc(Br)cc3c2Nc2ccc(C(C)(C)C#N)cc2)cc1` [19c, N-((6-Bromo-4-((4-(2-cyanopropan-2-yl)phenyl)amino)quinolin-3-yl)carbamoyl)-4-methylbenzenesulfonamide] had a melting point of 289.2 to 290.4 °C. Besides, inhibition with HepG-2 (setting [1]) was half-maximal at 31.2 ± 1.5 µM (IC50). In the data set on A549 (Homo sapiens), this compound registered an IC50 of 29 ± 1.31 µM. The IC50 in the data set on MCF-7 (setting [2]) was 3.96 ± 0.59 µM. In the data set with PC-3 (Homo sapiens), the midpoint of inhibition, the IC50, lay at 40.6 ± 1.11 µM.
In the same order, the values of `CC(C)(C)c1ccc(S(=O)(=O)NC(=O)Nc2cnc3ccc(Br)cc3c2Nc2ccc(C(C)(C)C#N)cc2)cc1` [19d, N-((6-Bromo-4-((4-(2-cyanopropan-2-yl)phenyl)amino)quinolin-3-yl)carbamoyl)-4-(tert-butyl)benzenesulfonamide] are 287.2 to 288.4 °C, greater than 100 µM, 30.6 ± 1.45 µM, 9.95 ± 0.99 µM and 68.2 ± 1.32 µM.
On to `COc1ccc(Nc2c(NC(=O)NS(=O)(=O)c3ccc(F)cc3)cnc3ccc(Br)cc23)cc1` [20a, N-((6-Bromo-4-((4-methoxyphenyl)amino)quinolin-3-yl)carbamoyl)-4-fluorobenzenesulfonamide], for which the melting point is 289.1 to 290.2 °C. Further, the concentration for half-maximal inhibition (IC50) in the data set with HepG-2 (setting [1]) stood at 20.3 ± 1.04 µM. Also, the midpoint of inhibition in the data set with A549 (Homo sapiens), the IC50, lay at 26.3 ± 1.13 µM. In addition, the half-maximal inhibitory concentration (IC50) in the data set on MCF-7 (setting [2]) was 7.65 ± 0.88 µM. Further, the IC50 in the data set with PC-3 (Homo sapiens) is greater than 100 µM.
In the same order, the values of `COc1ccc(Nc2c(NC(=O)NS(=O)(=O)c3ccc(Cl)cc3)cnc3ccc(Br)cc23)cc1` [20b, N-((6-Bromo-4-((4-methoxyphenyl)amino)quinolin-3-yl)carbamoyl)-4-chlorobenzenesulfonamide] are 282.2 to 283.1 °C, 22.6 ± 1.12 µM, 30.2 ± 1.23 µM, 10.7 ± 0.97 µM and greater than 100 µM.
Consider `COc1ccc(Nc2c(NC(=O)NS(=O)(=O)c3ccc(C)cc3)cnc3ccc(Br)cc23)cc1` [20c, N-((6-Bromo-4-((4-methoxyphenyl)amino)quinolin-3-yl)carbamoyl)-4-methylbenzenesulfonamide], for which the melting point fell in the range of 279.2 to 280.6 °C. The concentration for half-maximal inhibition (IC50) in the data set with HepG-2 (setting [1]) turned out to be 26.8 ± 1.22 µM. The IC50 in the data set with A549 (Homo sapiens) stood at 23.4 ± 1.12 µM. The IC50 in the data set on MCF-7 (setting [2]) was 4.94 ± 0.64 µM. In the data set with PC-3 (Homo sapiens), this compound yielded an IC50 greater than 100 µM.
`COc1ccc(Nc2c(NC(=O)NS(=O)(=O)c3ccc(C(C)(C)C)cc3)cnc3ccc(Br)cc23)cc1` [20d, N-((6-Bromo-4-((4-methoxyphenyl)amino)quinolin-3-yl)carbamoyl)-4-(tert-butyl)benzenesulfonamide] registered a melting point of 263.3 to 264.2 °C. For the same compound, the IC50 in the data set on HepG-2 (setting [1]) was found to be 33.2 ± 1.26 µM. This compound returned a 50% inhibitory concentration (IC50) in the data set with A549 (Homo sapiens) of 32.1 ± 1.18 µM. Further, the 50% inhibitory concentration (IC50) in the data set with MCF-7 (setting [2]) came to 10.5 ± 0.98 µM. Further, in the data set with PC-3 (Homo sapiens), the IC50 is greater than 100 µM.
In the same order, the values of `O=C(Nc1cnc2ccc(Br)cc2c1Nc1ccc(Br)cc1)NS(=O)(=O)c1ccc(F)cc1` [21a, N-((6-Bromo-4-((4-bromophenyl)amino)quinolin-3-yl)carbamoyl)-4-fluorobenzenesulfonamide] are 278.7 to 279.5 °C, 45.7 ± 1.66 µM, 59 ± 1.76 µM, 37.6 ± 1.57 µM and greater than 100 µM.
`O=C(Nc1cnc2ccc(Br)cc2c1Nc1ccc(Br)cc1)NS(=O)(=O)c1ccc(Cl)cc1` [21b, N-((6-Bromo-4-((4-bromophenyl)amino)quinolin-3-yl)carbamoyl)-4-chlorobenzenesulfonamide]: the melting point lay within 284.1 to 285.4 °C. The compound also came in with an IC50 in the data set with HepG-2 (setting [1]) of 11.1 ± 1.04 µM. In the data set on A549 (Homo sapiens), this compound showed an IC50 of 71.1 ± 1.85 µM. Besides, the IC50 in the data set on MCF-7 (setting [2]) was determined as 13.8 ± 1.14 µM. The IC50 in the data set on PC-3 (Homo sapiens) was greater than 100 µM.
In the same order, the values of `Cc1ccc(S(=O)(=O)NC(=O)Nc2cnc3ccc(Br)cc3c2Nc2ccc(Br)cc2)cc1` [21c, N-((6-Bromo-4-((4-bromophenyl)amino)quinolin-3-yl)carbamoyl)-4-methylbenzenesulfonamide] are 279.6 to 280.2 °C, 31.1 ± 1.49 µM, 22.7 ± 1.35 µM, 16.6 ± 1.22 µM and greater than 100 µM.
In the same order, the values of `CC(C)(C)c1ccc(S(=O)(=O)NC(=O)Nc2cnc3ccc(Br)cc3c2Nc2ccc(Br)cc2)cc1` [21d, N-((6-Bromo-4-((4-bromophenyl)amino)quinolin-3-yl)carbamoyl)-4-(tert-butyl)benzenesulfonamide] are 259.4 to 260.3 °C, 17 ± 1.22 µM, 16.2 ± 1.2 µM, 52.7 ± 1.72 µM and greater than 100 µM.
`O=C(Nc1cnc2ccc(Br)cc2c1Nc1ccc(F)c(Cl)c1)NS(=O)(=O)c1ccc(F)cc1` [22a, N-((6-Bromo-4-((3-chloro-4-fluorophenyl)amino)quinolin-3-yl)carbamoyl)-4-fluorobenzenesulfonamide] had a melting point of 295.1 to 296.3 °C. Further, half-maximal inhibition in the data set on HepG-2 (setting [1]) (IC50) was put at 19.63 ± 0.18 µM. This compound also registered a concentration for half-maximal inhibition (IC50) in the data set on A549 (Homo sapiens) of 12 ± 0.91 µM. Also, the IC50 in the data set with MCF-7 (setting [2]) amounted to 22.8 ± 1.35 µM. 52.5 ± 1.03 µM corresponded to half-maximal inhibition in the data set with PC-3 (Homo sapiens) (IC50).
Take `O=C(Nc1cnc2ccc(Br)cc2c1Nc1ccc(F)c(Cl)c1)NS(=O)(=O)c1ccc(Cl)cc1` [22b, N-((6-Bromo-4-((3-chloro-4-fluorophenyl)amino)quinolin-3-yl)carbamoyl)-4-chlorobenzenesulfonamide]: the melting point fell in the range of 282.3 to 283.7 °C. Further, in the data set on HepG-2 (setting [1]), half-maximal inhibition (IC50) required 6.44 ± 0.89 µM. For the same compound, the 50% inhibitory concentration (IC50) in the data set with A549 (Homo sapiens) was greater than 100 µM. For the same compound, the IC50 in the data set on MCF-7 (setting [2]) is 6.84 ± 0.83 µM. The compound also gave a 50% inhibitory concentration (IC50) in the data set on PC-3 (Homo sapiens) of 17.7 ± 0.95 µM.
The like results for `Cc1ccc(S(=O)(=O)NC(=O)Nc2cnc3ccc(Br)cc3c2Nc2ccc(F)c(Cl)c2)cc1` [22c, N-((6-Bromo-4-((3-chloro-4-fluorophenyl)amino)quinolin-3-yl)carbamoyl)-4-methylbenzenesulfonamide] were, in that order, 278.7 to 279.9 °C, 11.3 ± 0.84 µM, greater than 100 µM, 16.8 ± 1.22 µM and 16.7 ± 0.88 µM.
In the same order, the values of `CC(C)(C)c1ccc(S(=O)(=O)NC(=O)Nc2cnc3ccc(Br)cc3c2Nc2ccc(F)c(Cl)c2)cc1` [22d, N-((6-Bromo-4-((3-chloro-4-fluorophenyl)amino)quinolin-3-yl)carbamoyl)-4-(tert-butyl)benzenesulfonamide] are 290.1 to 291.6 °C, 28.4 ± 0.89 µM, 22.4 ± 1.21 µM, 46.3 ± 1.67 µM and 29.3 ± 2.23 µM.
The like results for `COc1ccc(Nc2c(NC(=O)NS(=O)(=O)c3ccc(Cl)cc3)c(C)nc3ccc(OC)cc23)cc1` [23a, 4-Chloro-N-((6-methoxy-4-((4-methoxyphenyl)amino)-2-methylquinolin-3-yl)carbamoyl)benzenesulfonamide] were, in that order, 290.8 to 291.2 °C, 16 ± 1.1 µM, 39.8 ± 1.59 µM, 6.3 ± 0.79 µM and greater than 100 µM.
`COc1ccc2nc(C)c(NC(=O)NS(=O)(=O)c3ccc(F)cc3)c(Nc3ccc(Br)cc3)c2c1` [23c, N-((4-((4-Bromophenyl)amino)-6-methoxy-2-methylquinolin-3-yl)carbamoyl)-4-fluorobenzenesulfonamide] came in with a melting point of 356.1 to 357.3 °C. For the same compound, the midpoint of inhibition with HepG-2 (setting [1]), the IC50, lay at 32.1 ± 1.12 µM. This compound had an IC50 in the data set on A549 (Homo sapiens) of 13 ± 0.84 µM. Also, the IC50 in the data set on MCF-7 (setting [2]) amounted to 25.4 ± 1.43 µM. Also, in the data set on PC-3 (Homo sapiens), 39.8 ± 1.25 µM corresponded to half-maximal inhibition (IC50).
In the same order, the values of `COc1ccc2nc(C)c(NC(=O)NS(=O)(=O)c3ccc(F)cc3)c(Nc3ccc(F)c(Cl)c3)c2c1` [23d, N-((4-((3-Chloro-4-fluorophenyl)amino)-6-methoxy-2-methylquinolin-3-yl)carbamoyl)-4-fluorobenzenesulfonamide] are 285.3 to 286.1 °C, 6.08 ± 1.04 µM, 38.1 ± 0.96 µM, 57 ± 1.75 µM and 57.9 ± 0.99 µM.
For `Cn1c(=O)n(-c2ccc(C(C)(C)C#N)cc2)c2c3cc(-c4cnc5ccccc5c4)ccc3ncc21` [NVP-BEZ235, reference compound], the 50% inhibitory concentration (IC50) in the data set with HepG-2 (setting [1]) was determined as 0.54 ± 0.83 µM; in the data set with A549 (Homo sapiens), 0.36 ± 0.86 µM; in the data set with MCF-7 (setting [2]), 0.14 ± 0.1 µM; in the data set on PC-3 (Homo sapiens) it was 0.2 ± 0.11 µM.

The record behind these values is publication PMC6099940, “Design, Synthesis and Biological Evaluation of Novel Phenylsulfonylurea Derivatives as PI3K/mTOR Dual Inhibitors” (Molecules : A Journal of Synthetic Chemistry and Natural …, 2018).
